Values quoted from earlier work, collected in patent publication US20240342237A1, “COMPOSITION AND METHODS OF TREATMENT USING TRANSDERMAL SUPPLEMENTATION” (Xygenyx Inc., priority 2023, published 2024).
Square brackets hold non-standard residues; d marks the D form. Peptide text beside a SMILES is read from it. Cit = NC(=O)NCCC[C@H](N)C(=O)O

Experiments:
skin [1] = details: as penetration enhancer
[2] = tested on: wide dynamic range neurons in the ventroposterolateral nucleus of the thalamus; details: in vivo
skin [3] = details: topical application, concentrations 0.5-5%
skin [4] = details: topical formulations, within four weeks of treatment
[5] = compared to α-tocopherol = 1.0
[6] = dietary intake in equal portions
[7] = in vivo

## CC(C)[C@@H]1CC[C@@H](C)C[C@H]1O [Menthol]
Skin [1]
  factor of increase of transdermal drug uptake: ≥ 10

## CCCCCc1cc(O)c2c(c1)OC(C)(C)C1CCC(C)=CC21 (stereo not shown) [THC, Δ-9-tetrahydrocannabinol]
[2]
  power in mediating pain relative to morphine: ten times more powerful than morphine

## C=CCCCCCCCCC(=O)N[C@@H](Cc1ccccc1)C(=O)O [UP, Undecylenoyl phenylalanine]
Skin [3]
  time to skin lightening effects: ≥ 7 days

## CC12CCC(CC1)C(C)(C)O2 [eucalyptol, 1,8-epoxy-p-menthane]
Skin [1]
  factor of increase of transdermal drug uptake: more than 10

## CC[C@H](C)[C@H](NC(=O)[C@H](CC(=O)O)NC(=O)[C@@H](N)CCCCN)C(=O)N[C@@H](CCCNC(N)=O)C(N)=O [tripeptide-10 citrulline, Tripeptide-10 citrulline] (H-KDI[Cit]-NH2)
Skin [4]
  improvement of suppleness: ≤ 54%

## Cc1c(C)c2c(c(C)c1O)CC[C@@](C)(CCC[C@H](C)CCC[C@H](C)CCCC(C)C)O2 [α-tocopherol]
Dietary supplementation, doses up to 400 IU/day
  reduction of risk of coronary disease: up to 34%
Dietary supplementation, doses up to 400 IU/day, controlled trials
  reduction of risk of developing neurodegenerative diseases such as Alzheimer's Syndrome or dementia: ≤ 24%
In combination with 10-20 mg β-carotene and 400-500 mg vitamin C, doses around 400-500 IU
  reduction in the development of age-related cataracts: 23%

## Cc1cc(O)c(C)c2c1O[C@](C)(CCC[C@H](C)CCC[C@H](C)CCCC(C)C)CC2 [β-tocopherol]
[5]
  relative biological activity: 0.5

## Cc1c(O)cc2c(c1C)O[C@](C)(CCC[C@H](C)CCC[C@H](C)CCCC(C)C)CC2 [γ-tocopherol]
[6]
  concentration in vivo relative to α-tocopherol: roughly 10%
[5]
  relative biological activity: 0.1

## Cc1cc(O)cc2c1O[C@](C)(CCC[C@H](C)CCC[C@H](C)CCCC(C)C)CC2 [δ-tocopherol]
[5]
  relative biological activity: 0.03

## HGH: hormone comprising a peptide chain that is synthesized in the pituitary gland
[7]
  biological half-life: 10-20 minutes
